“Also recorded” adds a separate entry of the source. No end group written: not given here.
Key:
[1] = system: postnatal day 14 C57BL/6J mice; assay: Dithizone/Klebsiella induced necrotizing enterocolitis murine model (Example 9); assay type: in vivo
Description: FIG. 40. Histological scoring system for evaluation of severity of necrotizing enterocolitis in a murine model of Klebsiella/Dithizone induced necrotizing enterocolitis. >2 indicates significant gut inflammation.
Incidence of necrotizing enterocolitis and IL-22 concentration in a murine model of necrotizing enterocolitis. Intestinal mucosal injury consistent with human necrotizing enterocolitis was induced by a combination of Dithizone followed by Klebsiella pneumonia challenge by oral gavage in postnatal day 14 C57BL/6J mice. The severity of necrotizing enterocolitis was assessed by a histological scoring system with a score of >2 indicating significant damage (FIG. 40). Neither Dithizone nor K. pneumonia challenge induced mucosal injury by themselves, but the combination of Dithizone followed by K. pneumonia challenge induced severe and statistically significant mucosal damage measured 16 hours post challenge (FIG. 41).

[2] = system: PBMC cells; assay: PBMC cell viability, Alamar Blue, 24 hours (Example 8); assay type: cell-based, human; details: 1, 10 and 40 μg/ml, 0.6 and 20.0 pg/ml LPS
Method: FIG. 39. Cell viability of PBMC cells following exposure for 24 hours to Alamar Blue and HD5, hBD-1, hBD-2, hBD-3 and hBD-4 at concentrations of 1, 10 and 40 μg/ml.
PBMC cell viability following exposure for 24 hours to Alamar Blue and HD5,hBD-1, hBD-2, hBD-3 and hBD-4 at concentrations of 1, 10 and 40 μg/ml at 0.6 and 20.0 pg/ml LPS respectively (FIG. 39).

[3] = system: BALB/c mice; assay: Therapeutic intervention in murine house dust mite/Freund's complete adjuvant driven model of allergic asthma, histopathology and cytokines (Example 7); assay type: in vivo; details: for Histological inflammation of lung tissue: vs HDM challenged vehicle
Method: Treatment regime: Female 7-10 weeks old BALB/c mice randomly allocated into 4 study groups one day prior to study start were subcutaneously (SC) sensitized to house dust mite (100 μg HDM in 200 μL saline plus Freund's complete adjuvant in 0.9% saline). Mice were intranasally (IN) challenged with HDM on day 14 (HDM 25 μg in 50 μL of saline). hBD-2 was administered IN or orally (0.4 mg/kg TID IN; 0.4 mg/kg TID orally, 50 μL phosphate buffered saline) on day 14. The initial dose was administered 60 minutes prior to challenge, and the subsequent doses approximately 6 hours apart (FIG. 3, groups 1-4)).
Blood sampling: All terminal blood samples were collected via jugular vein bleeds. Blood was sampled to Li-heparin tubes, put on ice and immediately centrifuged at 4° C. Plasma was separated and stored at −80° C. until the potential SCFA analysis. Lung tissue sampling: The lungs were exposed and excised by gently opening the thorax and by cutting down either side of the sternum and ribs and trimming back. […]
Cellular influx (mononuclears, eosinophils, neutrophils) was assessed semi-quantitatively on H&E stained slides separately for peri-bronchial/bronchiolar and perivascular space as follows: • 0 absent • 1 few scattered inflammatory cells • 2 larger aggregates • 3 marked accumulation of cells
Overall score for inflammation was calculated as the sum of all individual scores. Goblet cell metaplasia, separately at a level of large airways and distal airways, was assessed at PAS-stained slides as follows: • 0 no mucus containing cells along basement membrane • 1 few positive cells along basement membrane with less than 75% of the cytoplasm stained • 2 few positive cells along basement membrane with more than 75% of the cytoplasm stained • 3 numerous positive cells along basement membrane with less than 75% of the cytoplasm stained • 4 numerous positive cells along basement membrane with more than 75% of the cytoplasm stained […]

human beta defensin 2 (GIGDPVTCLKSGAICHPVFCPRRYKQIGTCGLPGTKCCKKP; ends and bridges not checked; cysteine pairing not given here; listed as Homo sapiens) [hBD-2]
Concentration of IL-22 ([1]; 1.2 mg/kg one hour post challenge, 9 hours post challenge): statistically significant gut mucosa protective increase of IL-22; also recorded: statistically significantly increased | Incidence of necrotizing enterocolitis (histological score >2) ([1]; oral 1.2 mg/kg one dose one hour post K. pneumonia challenge, 16 hours post challenge): statistically significant reduction of the incidence of necrotizing enterocolitis; also recorded: dramatically and statistically significantly reduced the incidence of necrotizing enterocolitis to normal | Toxicity (PBMC cell viability) [2]: not toxic irrespectively of concentration; also recorded: not to be toxic | Histological inflammation of lung tissue ([3]; intranasal 0.4 mg/kg TID on day 14): effectively inhibited the increase in histological inflammation of lung tissue | Histological inflammation of lung tissue ([3]; oral 0.4 mg/kg TID on day 14): effectively inhibited the increase in histological inflammation of lung tissue | IL-5 level in lung tissue homogenate ([3]; oral administration): Significant effects

Reference: patent US20250009844A1, “MATURATION OF MUCOSAL DEFENSE AND GUT/LUNG FUNCTION IN THE PRETERM INFANT” (Novozymes A/S, priority 2017, published 2025)
